Reference: DBAASP
Converted amounts (≈) assume the structure as drawn.

Key:
Test in all cases: ≥ marks a high value that may be exact or a test limit, other limits are often not marked, values filed in µg/mL are converted to µM
[1] = tested on: Fusarium solani KCTC 6326
[2] = tested on: Aspergillus fumigatus KCTC 6145
[3] = tested on: Candida tropicalis KCTC 7221
[4] = tested on: Escherichia coli ATCC 25922
[5] = tested on: Staphylococcus aureus
[6] = tested on: Pseudomonas aeruginosa
[7] = tested on: Candida krusei CCARM 14017
[8] = tested on: Bacillus subtilis KCTC 1998
[9] = tested on: Fusarium verticillioides KCTC 6149
[10] = tested on: Fusarium oxysporum KCTC 16909
[11] = tested on: Candida albicans KCTC 7270
[12] = tested on: Aspergillus flavus KCTC 6905
[13] = tested on: Trichophyton rubrum KCTC 6345
[14] = tested on: Candida parapsilosis CCARM 14016
[15] = tested on: Staphylococcus aureus ATCC 25923
[16] = tested on: Pseudomonas aeruginosa ATCC 15692
[17] = tested on: Trichosporon beigelii KCTC 7707
[18] = tested on: Bacillus subtilis ATCC 13933
[19] = tested on: Staphylococcus aureus USA 300
[20] = tested on: Pseudomonas aeruginosa PAO1
[21] = tested on: Acinetobacter baumannii ATCC 17978
[22] = tested on: Klebsiella pneumoniae NCTC 13368
[23] = tested on: Escherichia coli ATCC 700928
[24] = tested on: Candida albicans ATCC 90028
[25] = tested on: Escherichia coli NCTC 12923
[26] = tested on: Staphylococcus aureus ATCC 9144
[27] = tested on: Salmonella enterica subsp. enterica serovar Typhi CMCC 50071
[28] = tested on: Micrococcus luteus CMCC 28001
[29] = tested on: Streptococcus pneumoniae ATCC 49619
[30] = tested on: Ralstonia solanacearum ATCC 33192
[31] = tested on: Shigella dysenteriae CMCC 51252
[32] = tested on: Bacillus subtilis CMCC 63501
[33] = tested on: Salmonella typhimurium KCTC 1926
[34] = tested on: Acinetobacter baumannii CCARM 12005
[35] = tested on: Enterococcus faecalis KCTC 2011
[36] = tested on: Escherichia coli CCARM 1238
[37] = tested on: Salmonella typhimurium CCARM 8009
[38] = tested on: Acinetobacter baumannii CCARM 12036
[39] = tested on: Salmonella typhimurium CCARM 8003
[40] = tested on: Pseudomonas aeruginosa CCARM 2095
[41] = tested on: Salmonella typhimurium CCARM 8007
[42] = tested on: Acinetobacter baumannii CCARM 12035
[43] = tested on: Staphylococcus aureus CCARM 3126
[44] = tested on: Escherichia coli KCTC 1682
[45] = tested on: Staphylococcus aureus CCARM 3108
[46] = tested on: Bacillus subtilis KCTC 3068
[47] = tested on: Pseudomonas aeruginosa KCTC 1637
[48] = tested on: Staphylococcus aureus KCTC 1621
[49] = tested on: Acinetobacter baumannii CCARM 12037
[50] = tested on: Pseudomonas aeruginosa CCARM 2002
[51] = tested on: Escherichia coli CCARM 1229
[52] = tested on: Pseudomonas aeruginosa CCARM 2163
[53] = tested on: Staphylococcus aureus CCARM 3089

Compound CC[C@H](C)[C@H](NC(=O)[C@H](CC(C)C)NC(=O)[C@H](CCCCN)NC(=O)[C@H](CCCCN)NC(=O)[C@H](CC(C)C)NC(=O)[C@H](CCCN=C(N)N)NC(=O)[C@H](CCCCN)NC(=O)[C@@H](N)Cc1ccccc1)C(=O)N[C@@H](CO)C(=O)N[C@@H](Cc1c[nH]c2ccccc12)C(=O)N[C@H](C(=O)N[C@@H](CCCCN)C(=O)N[C@@H](CCCN=C(N)N)C(=O)N[C@@H](CCCCN)C(=O)N[C@@H](CCCN=C(N)N)C(=O)N[C@@H](CCC(N)=O)C(=O)N[C@@H](CCC(N)=O)C(N)=O)[C@@H](C)CC [FKRLKKLISWIKRKRQQ] has an MIC [1] of 1 µM (≈ 2.26 µg/mL), an MIC [2] of 2.83 µM (≈ 6.38 µg/mL) and an MIC [3] of 4 µM (≈ 9.02 µg/mL). For the same compound, the MIC [4] was 1 µM (≈ 2.26 µg/mL), the MIC [5] was 1.41 µM (≈ 3.19 µg/mL) and the MIC [6] was 1.41 µM (≈ 3.19 µg/mL). The MIC [7] was 8 µM (≈ 18 µg/mL), the MIC [8] was 2 µM (≈ 4.51 µg/mL) and the MIC [9] was 1.41 µM (≈ 3.19 µg/mL). It also gave an MIC [10] of 1.41 µM (≈ 3.19 µg/mL), an MIC [11] of 16 µM (≈ 36.1 µg/mL) and an MIC [12] of 2.83 µM (≈ 6.38 µg/mL). It also gave an MIC [13] of 1.41 µM (≈ 3.19 µg/mL), an MIC [14] of 16 µM (≈ 36.1 µg/mL) and an MIC [15] of 2 µM (≈ 4.51 µg/mL). The MIC [16] was 2 µM (≈ 4.51 µg/mL) and the MIC [17] was 1 µM (≈ 2.26 µg/mL).

With CC[C@H](C)[C@H](NC(=O)CNC(=O)[C@@H](N)CCCCN)C(=O)N[C@@H](CCCN=C(N)N)C(=O)NCC(=O)N[C@@H](Cc1ccc(O)cc1)C(=O)N[C@@H](CCCCN)C(=O)NCC(=O)NCC(=O)N[C@@H](Cc1ccc(O)cc1)C(=O)N[C@@H](CCCCN)C(=O)NCC(=O)N[C@@H](C)C(=O)N[C@@H](Cc1ccccc1)C(=O)N[C@@H](CCCCN)C(=O)N[C@@H](CCC(N)=O)C(=O)N[C@H](C(=O)N[C@@H](CCCCN)C(=O)N[C@@H](Cc1ccc(O)cc1)C(=O)O)[C@@H](C)O [KGIRGYKGGYKGAFKQTKY] the MIC [18] was ≥ 55.8 µM, the MIC [19] was ≥ 59.5 µM and the MIC [20] was > 59.5 µM. The MIC [21] was ≥ 59.5 µM, the MIC [22] was ≥ 59.5 µM and the MIC [23] was ≥ 55.8 µM. The MIC [24] was 2.2 µM (≈ 4.73 µg/mL), the MIC [25] was ≥ 59.5 µM and the MIC [26] was ≥ 59.5 µM.

CC[C@H](C)[C@H](NC(=O)[C@H](Cc1c[nH]c2ccccc12)NC(=O)[C@@H](N)CCSC)C(=O)N[C@H](C(=O)N[C@@H](CC(N)=O)C(=O)NCC(=O)NCC(=O)N[C@H](C(=O)N[C@@H](C)C(=O)N[C@@H](CC(N)=O)C(=O)N[C@@H](Cc1c[nH]c2ccccc12)C(=O)N[C@@H](Cc1ccc(O)cc1)C(=O)N[C@@H](Cc1ccccc1)C(=O)N[C@H](C(=O)N[C@@H](CC(C)C)C(=O)N[C@@H](C)C(=O)N[C@@H](CCCN=C(N)N)C(=O)O)C(C)C)C(C)C)[C@@H](C)O [MWITNGGVANWYFVLAR] showed an MIC [4] of 6.26 µM (≈ 12.5 µg/mL), an MIC [27] of 3.13 µM (≈ 6.25 µg/mL) and an MIC [28] of 12.5 µM (≈ 25 µg/mL). The MIC [29] was 6.26 µM (≈ 12.5 µg/mL), the MIC [30] was 6.26 µM (≈ 12.5 µg/mL) and the MIC [31] was 1.57 µM (≈ 3.14 µg/mL). For the same compound, the MIC [15] was 12.5 µM (≈ 25 µg/mL) and the MIC [32] was 6.26 µM (≈ 12.5 µg/mL).

With CC[C@H](C)[C@H](NC(=O)[C@H](CCCCN)NC(=O)[C@H](Cc1c[nH]c2ccccc12)NC(=O)[C@@H](N)CCCN=C(N)N)C(=O)N[C@@H](Cc1ccccc1)C(=O)N[C@@H](CCCCN)C(=O)N[C@@H](CCCCN)C(=O)N[C@H](C(=O)N1CCC[C@H]1C(=O)N[C@@H](CCCCN)C(=O)N[C@@H](Cc1ccccc1)C(=O)N[C@@H](CC(C)C)C(=O)N[C@@H](Cc1cnc[nH]1)C(=O)N[C@@H](CO)C(=O)N[C@@H](C)C(=O)N[C@@H](CCCCN)C(=O)N[C@@H](CCCCN)C(=O)N[C@@H](Cc1ccccc1)C(N)=O)[C@@H](C)CC [RWKIFKKIPKFLHSAKKF] the MIC [33] was 2 µM (≈ 4.6 µg/mL), the MIC [34] was 2 µM (≈ 4.6 µg/mL) and the MIC [35] was 16 µM (≈ 36.8 µg/mL). The MIC [36] was 2 µM (≈ 4.6 µg/mL), the MIC [37] was 2 µM (≈ 4.6 µg/mL) and the MIC [38] was 2 µM (≈ 4.6 µg/mL). It also gave an MIC [39] of 4 µM (≈ 9.21 µg/mL), an MIC [40] of 2 µM (≈ 4.6 µg/mL) and an MIC [41] of 2 µM (≈ 4.6 µg/mL). For the same compound, the MIC [42] was 2 µM (≈ 4.6 µg/mL), the MIC [43] was 8 µM (≈ 18.4 µg/mL) and the MIC [44] was 2 µM (≈ 4.6 µg/mL). The MIC [45] was 4 µM (≈ 9.21 µg/mL), the MIC [46] was 4 µM (≈ 9.21 µg/mL) and the MIC [47] was 4 µM (≈ 9.21 µg/mL). For the same compound, the MIC [48] was 4 µM (≈ 9.21 µg/mL), the MIC [49] was 2 µM (≈ 4.6 µg/mL) and the MIC [50] was 2 µM (≈ 4.6 µg/mL). It also gave an MIC [51] of 4 µM (≈ 9.21 µg/mL), an MIC [52] of 2 µM (≈ 4.6 µg/mL) and an MIC [53] of 8 µM (≈ 18.4 µg/mL).
